From PubChem BioAssay (NCI)
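Cells were grown in 96-well plates and exposed to each compound for 48 hours at five concentrations; endpoints were interpolated linearly between bracketing concentrations, or set to the highest concentration if not reached. TGI: concentration producing complete growth inhibition.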

Experiments:
Experiment in all cases: NCI tumour cell line growth inhibition, 48 h
HOP-92 NSCLC = test system: HOP-92 NSCLC
LXFL 529 NSCLC = test system: LXFL 529 NSCLC
HL-60(TB) leukemia = test system: HL-60(TB) leukemia
SK-MEL-2 melanoma = test system: SK-MEL-2 melanoma
SN12C renal = test system: SN12C renal
IGROV1 ovarian = test system: IGROV1 ovarian
M14 melanoma = test system: M14 melanoma
UACC-62 melanoma = test system: UACC-62 melanoma
LOX IMVI melanoma = test system: LOX IMVI melanoma
UO-31 renal = test system: UO-31 renal
SNB-19 CNS = test system: SNB-19 CNS
CAKI-1 renal = test system: CAKI-1 renal
MALME-3M melanoma = test system: MALME-3M melanoma
TK-10 renal = test system: TK-10 renal
KM20L2 colon = test system: KM20L2 colon
SW-620 colon = test system: SW-620 colon
786-0 renal = test system: 786-0 renal
HCC-2998 colon = test system: HCC-2998 colon
A549 NSCLC = test system: A549 NSCLC
XF 498 CNS = test system: XF 498 CNS
SF-268 CNS = test system: SF-268 CNS
RXF 393 renal = test system: RXF 393 renal
SF-295 CNS = test system: SF-295 CNS
EKVX NSCLC = test system: EKVX NSCLC
NCI-H23 lung = test system: NCI-H23 lung
COLO 205 colon = test system: COLO 205 colon
MOLT-4 leukemia = test system: MOLT-4 leukemia
SK-MEL-28 melanoma = test system: SK-MEL-28 melanoma
HOP-62 NSCLC = test system: HOP-62 NSCLC
M19-MEL melanoma = test system: M19-MEL melanoma
CCRF-CEM leukemia = test system: CCRF-CEM leukemia
NCI-H226 lung = test system: NCI-H226 lung
UACC-257 melanoma = test system: UACC-257 melanoma
HCT-116 colon = test system: HCT-116 colon
U251 CNS = test system: U251 CNS
OVCAR-3 ovarian = test system: OVCAR-3 ovarian
SK-MEL-5 melanoma = test system: SK-MEL-5 melanoma
SNB-75 CNS = test system: SNB-75 CNS
DMS 114 small cell lung = test system: DMS 114 small cell lung
NCI-H522 lung = test system: NCI-H522 lung
SR leukemia = test system: SR leukemia
RPMI-8226 leukemia = test system: RPMI-8226 leukemia
DLD-1 colon = test system: DLD-1 colon
HT29 colon = test system: HT29 colon
SF-539 CNS = test system: SF-539 CNS
HOP-18 NSCLC = test system: HOP-18 NSCLC
RXF-631 renal = test system: RXF-631 renal
SK-OV-3 ovarian = test system: SK-OV-3 ovarian
HCT-15 colon = test system: HCT-15 colon
A498 renal = test system: A498 renal
ACHN renal = test system: ACHN renal
DMS 273 small cell lung = test system: DMS 273 small cell lung
NCI-H460 lung = test system: NCI-H460 lung
OVCAR-4 ovarian = test system: OVCAR-4 ovarian
K-562 leukemia = test system: K-562 leukemia
KM12 colon = test system: KM12 colon
OVCAR-5 ovarian = test system: OVCAR-5 ovarian
SNB-78 CNS = test system: SNB-78 CNS
OVCAR-8 ovarian = test system: OVCAR-8 ovarian

With `C[Si]1(C)C(c2ccccc2)=CC2C(c3ccccc3)(c3ccccc3)OC21c1ccccc1` (stereo unspecified) the TGI (HOP-92 NSCLC) was > 100 µM, the TGI (LXFL 529 NSCLC) was > 100 µM and the TGI (HL-60(TB) leukemia) was > 100 µM. For the same molecule, the TGI (SK-MEL-2 melanoma) was > 100 µM, the TGI (SN12C renal) was > 100 µM and the TGI (IGROV1 ovarian) was > 100 µM. The TGI (M14 melanoma) was > 100 µM, the TGI (UACC-62 melanoma) was > 100 µM and the TGI (LOX IMVI melanoma) was > 100 µM. The TGI (UO-31 renal) was > 100 µM, the TGI (SNB-19 CNS) was > 100 µM and the TGI (CAKI-1 renal) was > 100 µM. The TGI (MALME-3M melanoma) was > 100 µM, the TGI (TK-10 renal) was > 100 µM and the TGI (KM20L2 colon) was > 100 µM. The TGI (SW-620 colon) was > 100 µM, the TGI (786-0 renal) was > 100 µM and the TGI (HCC-2998 colon) was > 100 µM. For the same molecule, the TGI (A549 NSCLC) was > 100 µM, the TGI (XF 498 CNS) was > 100 µM and the TGI (SF-268 CNS) was > 100 µM. The TGI (RXF 393 renal) was > 100 µM, the TGI (SF-295 CNS) was > 100 µM and the TGI (EKVX NSCLC) was > 100 µM. The TGI (NCI-H23 lung) was > 100 µM, the TGI (COLO 205 colon) was > 100 µM and the TGI (MOLT-4 leukemia) was > 100 µM. The TGI (SK-MEL-28 melanoma) was > 100 µM, the TGI (HOP-62 NSCLC) was > 100 µM and the TGI (M19-MEL melanoma) was > 100 µM. The TGI (CCRF-CEM leukemia) was > 100 µM, the TGI (NCI-H226 lung) was > 100 µM and the TGI (UACC-257 melanoma) was > 100 µM. For the same molecule, the TGI (HCT-116 colon) was > 100 µM, the TGI (U251 CNS) was > 100 µM and the TGI (OVCAR-3 ovarian) was > 100 µM. For the same molecule, the TGI (SK-MEL-5 melanoma) was > 100 µM, the TGI (SNB-75 CNS) was > 100 µM and the TGI (DMS 114 small cell lung) was > 100 µM. The TGI (NCI-H522 lung) was > 100 µM, the TGI (SR leukemia) was > 100 µM and the TGI (RPMI-8226 leukemia) was > 100 µM. The TGI (DLD-1 colon) was > 100 µM, the TGI (HT29 colon) was > 100 µM and the TGI (SF-539 CNS) was > 100 µM. The TGI (HOP-18 NSCLC) was > 100 µM, the TGI (RXF-631 renal) was > 100 µM and the TGI (SK-OV-3 ovarian) was > 100 µM. For the same molecule, the TGI (HCT-15 colon) was > 100 µM, the TGI (A498 renal) was > 100 µM and the TGI (ACHN renal) was > 100 µM. The TGI (DMS 273 small cell lung) was > 100 µM, the TGI (NCI-H460 lung) was > 100 µM and the TGI (OVCAR-4 ovarian) was > 100 µM. The TGI (K-562 leukemia) was > 100 µM, the TGI (KM12 colon) was > 100 µM and the TGI (OVCAR-5 ovarian) was > 100 µM.

Molecule `Cc1ccc(Nc2nc3c(s2)C(=O)c2ccccc2C3=O)cc1` has a TGI (HOP-92 NSCLC) of 14.3 µM, a TGI (LXFL 529 NSCLC) of 3 µM and a TGI (HL-60(TB) leukemia) of 0.602 µM. The TGI (SK-MEL-2 melanoma) was 3.94 µM, the TGI (SN12C renal) was 3.4 µM and the TGI (IGROV1 ovarian) was 3.73 µM. The TGI (M14 melanoma) was 3.25 µM, the TGI (UACC-62 melanoma) was 3.92 µM and the TGI (LOX IMVI melanoma) was 3.11 µM. The TGI (UO-31 renal) was 4.12 µM, the TGI (SNB-19 CNS) was 3.33 µM and the TGI (CAKI-1 renal) was 3 µM. The TGI (MALME-3M melanoma) was 3.39 µM, the TGI (TK-10 renal) was 18.9 µM and the TGI (KM20L2 colon) was 38.9 µM. The TGI (786-0 renal) was 3.37 µM, the TGI (HCC-2998 colon) was 3.58 µM and the TGI (A549 NSCLC) was 4.86 µM. The TGI (XF 498 CNS) was 3.76 µM, the TGI (SF-268 CNS) was 5.66 µM and the TGI (SF-295 CNS) was 2.99 µM. For the same molecule, the TGI (EKVX NSCLC) was 16 µM, the TGI (NCI-H23 lung) was 4.33 µM and the TGI (COLO 205 colon) was 26.9 µM. For the same molecule, the TGI (MOLT-4 leukemia) was 3.83 µM, the TGI (SK-MEL-28 melanoma) was 2.99 µM and the TGI (SNB-78 CNS) was 5.82 µM. For the same molecule, the TGI (HOP-62 NSCLC) was 20 µM, the TGI (M19-MEL melanoma) was 1.05 µM and the TGI (CCRF-CEM leukemia) was 5.04 µM. The TGI (NCI-H226 lung) was 33.9 µM, the TGI (UACC-257 melanoma) was 3.2 µM and the TGI (U251 CNS) was 3.42 µM. For the same molecule, the TGI (OVCAR-3 ovarian) was 4.87 µM, the TGI (SK-MEL-5 melanoma) was 3.43 µM and the TGI (SNB-75 CNS) was 5.03 µM. For the same molecule, the TGI (DMS 114 small cell lung) was 3.28 µM, the TGI (NCI-H522 lung) was 3.25 µM and the TGI (RPMI-8226 leukemia) was 3.74 µM. The TGI (DLD-1 colon) was 4.26 µM, the TGI (HT29 colon) was 11.2 µM and the TGI (SF-539 CNS) was 17.7 µM. For the same molecule, the TGI (HOP-18 NSCLC) was 3.19 µM, the TGI (RXF-631 renal) was 3.8 µM and the TGI (SK-OV-3 ovarian) was 40.1 µM. For the same molecule, the TGI (OVCAR-8 ovarian) was 5.07 µM, the TGI (HCT-15 colon) was 4.29 µM and the TGI (A498 renal) was 30.9 µM. For the same molecule, the TGI (ACHN renal) was 3.21 µM, the TGI (DMS 273 small cell lung) was 3.75 µM and the TGI (OVCAR-4 ovarian) was 2.89 µM. It also gave a TGI (K-562 leukemia) of 7.19 µM, a TGI (KM12 colon) of 3.44 µM and a TGI (OVCAR-5 ovarian) of 3.5 µM.
